# Experiments:
# Assay type in all cases: physicochemical
# [1] = Physical stability of crystal forms at high relative humidity (one week storage)
# Description: X-ray diffraction data described herein was obtained by the powder diffraction method. X-Ray powder diffraction data were obtained using methods known in the art with a SCINTAG powder X-Ray diffractometer model X'TRA equipped with a solid state detector. Copper radiation of 1.5418 Å was used. A round aluminum sample holder with a round zero background quartz plate, with cavity of 25 mm×0.5 mm.
# Thermogravimetric analysis (TGA) is a technique of thermal analysis well known in the art and measures the change in weight of a sample as a function of temperature. The technique is particularly well suited for measurement of, for example, decomposition and desolvation. TGA results reported herein were obtained using a Mettler TG50. Sample size was between about 6 and about 15 mg. Samples were analyzed at a heating rate of 10° C./min from 25° C. to 250 C. The oven was purged with nitrogen gas at a flow rate of 40 ml/min. Standard alumina crucibles covered by lids with one hole were used.
# (§1) The stability of crystalline forms of risedronate sodium against transformation to form A is measured by exposing a sample to an atmosphere having a percent relative humidity (RH or %RH) of at least about 50% at a temperature greater than room temperature for a period of time. It is convenient to evaluate the stability of a crystalline form of risedronate sodium against transformation to form A by exposing a sample to an atmosphere having RH of about 75% at a temperature of 40° C. for a period of at least 3 months. The experience of the skilled artisan teaches that a pharmaceutical that is stable under these conditions will be stable for at least 2 years at room temperature.
# [2] = as above; details: 80%-100% RH at room temperature for at least one week; 'not substantially' = not more than about 20%
# [3] = Stability of form B against transformation to form A at 40° C. / 75% RH
# Method: X-ray diffraction analysis can be used to detect and quantify one crystalline form of risedronate sodium in another.
# as §1
# [4] = Stability test of risedronate tablets at 40° C., 75% RH (crystal form by X-Ray powder diffraction); details: 5 months, stressed conditions of 40° C. and 75% RH
# Description: The crystal form (detected from X-Ray powder diffraction data) of Risedronate active ingredient in the tablet are shown in the following table.
# [5] = relative humidity 80%, one week storage, listed as D (MS-273), monosodium salt
smiles,measurement,setting,value
"O=P([O-])(O)C(O)(Cc1cccnc1)P(=O)(O)O.[Na+] [Form G, 1-hydroxy-2(3-pyridinyl)ethylidene bis phosphonic acid monosodium salt]",TGA Weight Loss (%),"[1]; relative humidity 20-80%, one week storage",9.4-10.2%
same,TGA Weight Loss (%),"[1]; relative humidity 100%, one week storage",12.6%
same,Resulting form,"[1]; relative humidity 100%, one week storage, listed as G (MS-257 160 C. 8 hr), monosodium salt",G + A
same,Resulting form,"[1]; relative humidity 100%, one week storage, listed as form G, monosodium salt",a mixture of form G and form A
"O=P([O-])(O)C(O)(Cc1cccnc1)P(=O)(O)O.[Na+] [Form D, 1-hydroxy-2(3-pyridinyl)ethylidene bis phosphonic acid monosodium salt]",Resulting form,[1]; [5],D > B
same,TGA Weight Loss (%),[1]; [5],1.1%
same,Resulting form,"[1]; relative humidity 80%, one week storage, listed as form D, monosodium salt",a mixture of form D and form B
same,Resulting form,"[1]; relative humidity 80-100%, one week storage, monosodium salt",form B
"O=P([O-])(O)C(O)(Cc1cccnc1)P(=O)(O)O.[Na+] [Form C, 1-hydroxy-2(3-pyridinyl)ethylidene bis phosphonic acid monosodium salt]",Conversion to form A,[2],does not substantially convert
same,TGA Weight Loss (%),"[1]; relative humidity 80%, one week storage, listed as C (LB-87), monosodium salt",16.0%
same,Resulting form,"[1]; relative humidity 80%, one week storage, listed as form C, monosodium salt",a mixture of form C and form H
"O=P([O-])(O)C(O)(Cc1cccnc1)P(=O)(O)O.[Na+] [Form E, 1-hydroxy-2(3-pyridinyl)ethylidene bis phosphonic acid monosodium salt]",TGA Weight Loss (%),"[1]; relative humidity 80%, one week storage, listed as E (MS-277), monosodium salt",14.0%
same,Resulting form,"[1]; relative humidity 80%, one week storage, listed as form E, monosodium salt",form A with a small quantity of form D
"O=P([O-])(O)C(O)(Cc1cccnc1)P(=O)(O)O.[Na+] [Form B, 1-hydroxy-2(3-pyridinyl)ethylidene bis phosphonic acid monosodium salt]",Part of form B that transforms to form A,[3]; RH of 75% at 40° C. for at least three months,less than 20%
same,Conversion to form A hemipentahydrate,"[3]; storage at 40° C. and 75% RH for 6 months, 'not substantially' = not more than about 20%",does not substantially convert
same,Conversion to form A hemipentahydrate,"[1]; 75% to 100% RH for one week or more, 'not substantially' = not more than about 20%",does not substantially convert
same,TGA Weight Loss (%),"[1]; relative humidity 80%, one week storage, listed as B (LB-89), monosodium salt",6.5%
same,Stability of form B in tablets,[4],stable
"O=P([O-])(O)C(O)(Cc1cccnc1)P(=O)(O)O.[Na+] [Form A, 1-hydroxy-2(3-pyridinyl)ethylidene bis phosphonic acid monosodium salt, reference compound]",TGA Weight Loss (%),"[1]; relative humidity 80%, one week storage, listed as A (LB-91), monosodium salt",13.6%
"O=P([O-])(O)C(O)(Cc1cccnc1)P(=O)(O)O.[Na+] [Form F, 1-hydroxy-2(3-pyridinyl)ethylidene bis phosphonic acid monosodium salt]",TGA Weight Loss (%),"[1]; relative humidity 20-60%, one week storage",4-6%
same,Resulting form,"[1]; relative humidity 80%, one week storage, listed as form F, monosodium salt",a mixture of form BB
same,TGA Weight Loss (%),"[1]; relative humidity 80-100%, one week storage",11.3-12.3%
same,Resulting form,"[1]; relative humidity 80-100%, one week storage, listed as F (LB-104 160 C. 8 hr), monosodium salt",BB > A
same,Resulting form,"[1]; relative humidity 80-100%, one week storage, listed as form F, monosodium salt",form BB
same,Resulting form,"[1]; relative humidity 100%, one week storage, listed as form F, monosodium salt",form BB
same,Rearrangement to the hemipentahydrate form,"[1]; up to 100% relative humidity, one week storage",does not substantially rearrange

# Reference: US20030195170A1, “Novel polymorphs and pseudopolymorphs of risedronate sodium” (priority 2002, published 2003)
